A value given as a limit tells only on which side of the number the result lay.

The first test deals with NCI-H358 human non-small cell lung cancer cell with KRAS G12C mutation. Put plainly: Cell Titer-Glo cell viability, NCI-H358 cells (72 h). In kind it is cell-based. Particulars: Homo sapiens, NCI-H358, 72 h, class symbols. The text has this:
Effect Example 1: Pharmacodynamic Assay 1 (Determination of the efficacy of the compounds of the present disclosure on NCI-H358 human non-small cell lung cancer cell with KRAS G12C mutation)
The following method was used to determine the effect of the compounds of the present disclosure on tumor cell proliferation.
For the KRAS G12C subtype, NCI-H358 non-small cell lung cancer cells with KRAS G12C mutation were used to determine the efficacy of the compounds in inhibiting cancer cell viability. NCI-H358 cells were cultured in a DMEM medium containing 10% fetal bovine serum, 100 U penicillin and […] streptomycin. The cells were cultured in an incubator with 5% CO2 at 37° C. Cancer cell viability was evaluated by determining the content of ATP with Cell Titer-Glo® kit (Luminescent Cell Viability Assay kit, please refer to the manufacturer's instructions for use) and evaluating the inhibition of cell growth.
The experimental method was proceeded in accordance with the steps in the instructions for the kit, and was described briefly as follows. The test compounds were first dissolved in DMSO to prepare stock solutions, and then the stock solutions were subjected to gradient dilution with the culture media of the corresponding cells, thereby preparing test samples. The final concentrations of the compounds were in the range of 30 μM to 0.01 nM. Tumor cells in logarithmic growth phase were seeded into a 96-well cell culture plate at an appropriate density. After the cell culture plate was left overnight in an incubator with 5% CO2 at 37° C., the test compound samples were added thereto and then the cells were further cultured for 72 hours. After the incubation was complete, an appropriate volume of Cell Titer-Glo® reagent was added into each well, and the cells were incubated at 37° C. for 1 to 4 hours. Then, the […] was read on a microplate reader.
`C=CC(=O)N1CCN(c2c(C#N)c(=O)n(-c3ccccc3C(C)C)c3cc(-c4ccc(C5CC5)cc4)c(Cl)cc23)[C@@H](C)C1` [Compound I-53] came in with an IC50 of 100 to 1000 nM.
On the same count and under the same terms, for `C=CC(=O)N1CCN(c2c(C#N)c(=O)n(-c3ccccc3C(C)C)c3cc(-c4cc(Cl)cc(F)c4N)c(Cl)cc23)[C@@H](C)C1` (atropisomer, axis not shown) [Compound I-78] the value was less than 100 nM; for `C=CC(=O)N1CCN(c2c(C#N)c(=O)n(-c3ccccc3C(C)C)c3cc(-c4ccc(Cl)c5ccccc45)c(Cl)cc23)[C@@H](C)C1` [Compound I-24], less than 100 nM.
Still for that read-out and setting: for `C=CC(=O)N1CCN(c2c(C#N)c(=O)n(-c3ccccc3C(C)C)c3cc(-c4ccccc4C(N)=O)c(Cl)cc23)[C@@H](C)C1` [Compound I-12] the value was 100 to 1000 nM.
`C=CC(=O)N1CCN(c2c(C#N)c(=O)n(-c3c(C(C)C)ncnc3C(C)C)c3cc(-c4c(C)ccc5[nH]ncc45)c(Cl)cc23)[C@@H](C)C1` [Compound I-86-1] displayed an IC50 of less than 100 nM.
On the same count and under the same terms, for `C=CC(=O)N1CCN(c2c(C#N)c(=O)n(-c3ccccc3C(C)C)c3cc(-c4ccc(F)cc4CO)c(Cl)cc23)[C@@H](C)C1` [Compound I-63] the value was 100 to 1000 nM.
In the case of `C=CC(=O)N1CCN(c2c(C#N)c(=O)n(-c3ccccc3C(C)C)c3cc(-c4ccccc4Cl)c(Cl)cc23)[C@@H](C)C1` [Compound I-18], the IC50 fell in the range of 100 to 1000 nM.
Still for that read-out and setting: for `C=CC(=O)N1CCN(c2c(C#N)c(=O)n(-c3ccccc3C(C)C)c3cc(-c4c(C)noc4C)c(Cl)cc23)[C@@H](C)C1` [Compound I-34] the value was more than 1000 nM; for `C=CC(=O)N1CCN(c2c(C#N)c(=O)n(-c3ccccc3C(C)C)c3cc(-c4ccccc4C(F)(F)F)c(Cl)cc23)[C@@H](C)C1` [Compound I-46], more than 1000 nM.
Still for that read-out and setting: next, `C=CC(=O)N1CCN(c2c(C#N)c(=O)n(-c3ccccc3C(C)C)c3cc(-c4cc(C)c(=O)n(C)c4)c(Cl)cc23)[C@@H](C)C1` [Compound I-16]: 100 to 1000 nM; `C=CC(=O)N1CCN(c2c(C#N)c(=O)n(-c3ccccc3C(C)C)c3cc(-c4ccc5[nH]ncc5c4)c(Cl)cc23)[C@@H](C)C1` [Compound I-74]: more than 1000 nM.
The same measure, in the same setting: next, `C=CC(=O)N1CCN(c2c(C#N)c(=O)n(-c3ccccc3C(C)C)c3cc(-c4cc(C(F)(F)F)cc(Cl)c4N)c(Cl)cc23)[C@@H](C)C1` [Compound I-79]: less than 100 nM.
`C=CC(=O)N1CCN(c2c(C#N)c(=O)n(-c3ccccc3C(C)C)c3cc(-c4cncc(N)c4)c(Cl)cc23)[C@@H](C)C1` [Compound I-59] yielded an IC50 of more than 1000 nM.
On the same count and under the same terms, next, `C=CC(=O)N1CCN(c2c(C#N)c(=O)n(-c3ccccc3C(C)C)c3cc(-c4ccn(C)c(=O)c4)c(Cl)cc23)[C@@H](C)C1` [Compound I-68]: 100 to 1000 nM; `C=CC(=O)N1CCN(c2c(C#N)c(=O)n(-c3ccccc3C(C)C)c3cc(-c4cccc5ccncc45)c(Cl)cc23)[C@@H](C)C1` [Compound I-23]: 100 to 1000 nM; `C=CC(=O)N1CCN(c2c(C#N)c(=O)n(-c3ccccc3C(C)C)c3cc(-c4ccc(Cl)cc4F)c(Cl)cc23)[C@@H](C)C1` [Compound I-42]: 100 to 1000 nM.
Compound `C=CC(=O)N1CCN(c2c(C#N)c(=O)n(-c3ccccc3C(C)C)c3cc(-c4ccc(N)cc4F)c(Cl)cc23)[C@@H](C)C1` [Compound I-45] came in with an IC50 of 100 to 1000 nM.
As for `C=CC(=O)N1CCN(c2c(C#N)c(=O)n(-c3ccccc3C(C)C)c3cc(-c4ccc(F)cc4)c(Cl)cc23)[C@@H](C)C1` [Compound I-15], the IC50 lay within 100 to 1000 nM.
`C=CC(=O)N1CCN(c2c(C#N)c(=O)n(-c3ccccc3C(C)C)c3cc(-c4cccc(N)n4)c(Cl)cc23)[C@@H](C)C1` [Compound I-41]: the IC50 was 100 to 1000 nM.
Regarding `C=CC(=O)N1CCN(c2c(C#N)c(=O)n(-c3ccccc3C(C)C)c3cc(-c4cc(Cl)cc(Cl)c4)c(Cl)cc23)[C@@H](C)C1` [Compound I-39], the IC50 is 100 to 1000 nM.
The same measure, in the same setting: next, `C=CC(=O)N1CCN(c2c(C#N)c(=O)n(-c3ccccc3C(C)C)c3cc(-c4ccc(Cl)c(Cl)c4C)c(Cl)cc23)[C@@H](C)C1` [Compound I-29]: 100 to 1000 nM; `C=CC(=O)N1CCN(c2c(C#N)c(=O)n(-c3ccccc3C(C)C)c3cc(-c4ccnc5[nH]ccc45)c(Cl)cc23)[C@@H](C)C1` [Compound I-52]: 100 to 1000 nM; `C=CC(=O)N1CCN(c2c(C#N)c(=O)n(-c3ccccc3C(C)C)c3cc(-c4cccc5ccoc45)c(Cl)cc23)[C@@H](C)C1` [Compound I-55]: 100 to 1000 nM.
Same read-out and setting: next, `C=CC(=O)N1CCN(c2c(C#N)c(=O)n(-c3ccccc3C(C)C)c3cc(-c4cnc(N)nc4)c(Cl)cc23)[C@@H](C)C1` [Compound I-62]: 100 to 1000 nM; `C=CC(=O)N1CCN(c2c(C#N)c(=O)n(-c3ccccc3Cl)c3cc(-c4c(OC)ccc(Cl)c4F)c(Cl)cc23)[C@@H](C)C1` [Compound I-85-1]: 100 to 1000 nM.
Still for that read-out and setting: for `C=CC(=O)N1CCN(c2c(C#N)c(=O)n(-c3ccccc3C(C)C)c3cc(-c4cc(C#N)ccc4C)c(Cl)cc23)[C@@H](C)C1` [Compound I-49] the value was 100 to 1000 nM.
`C=CC(=O)N1CCN(c2c(C#N)c(=O)n(-c3ccccc3C(C)C)c3cc(-c4cccc(Cl)c4F)c(Cl)cc23)[C@@H](C)C1` [Compound I-36] yielded an IC50 of 100 to 1000 nM.
Same read-out and setting: for `C=CC(=O)N1CCN(c2c(C#N)c(=O)n(-c3c(C)ccnc3C(C)C)c3cc(-c4c(C)ccc5[nH]ncc45)c(Cl)cc23)[C@@H](C)C1` [Compound I-83-1] the value was less than 100 nM; for `C=CC(=O)N1CCN(c2c(C#N)c(=O)n(-c3ccccc3C(C)C)c3cc(-c4c(C)cccc4C)c(Cl)cc23)[C@@H](C)C1` [Compound I-48], 100 to 1000 nM; for `C=CC(=O)N1CCN(c2c(C#N)c(=O)n(-c3ccccc3C(C)C)c3cc(-c4c(OC)ccc5ccccc45)c(Cl)cc23)[C@@H](C)C1` [Compound I-31], less than 100 nM.
The same measure, in the same setting: for `C=CC(=O)N1CCN(c2c(C#N)c(=O)n(-c3ccccc3C(C)C)c3cc(-c4cc(F)ccc4O)c(Cl)cc23)[C@@H](C)C1` [Compound I-70] the value was less than 100 nM; for `C=CC(=O)N1CCN(c2c(C#N)c(=O)n(-c3ccccc3C(C)C)c3cc(-c4ccccc4C#N)c(Cl)cc23)[C@@H](C)C1` [Compound I-19], more than 1000 nM.
The same measure, in the same setting: for `C=CC(=O)N1CCN(c2c(C#N)c(=O)n(-c3ccccc3C(C)C)c3cc(-c4ccc(C(F)(F)F)nc4)c(Cl)cc23)[C@@H](C)C1` [Compound I-40] the value was more than 1000 nM.
Take `C=CC(=O)N1CCN(c2c(C#N)c(=O)n(-c3ccccc3C(C)C)c3cc(-c4cc(Cl)ccc4F)c(Cl)cc23)[C@@H](C)C1` [Compound I-37]: the IC50 was 100 to 1000 nM.
Still for that read-out and setting: for `C=CC(=O)N1CCN(c2c(C#N)c(=O)n(-c3ccccc3C(C)C)c3cc(-c4ccc(Cl)cc4)c(Cl)cc23)[C@@H](C)C1` [Compound I-11] the value was more than 1000 nM; for `CCn1nccc1-c1cc2c(cc1Cl)c(N1CCN(C(C)=O)C[C@@H]1C)c(C#N)c(=O)n2-c1ccccc1C(C)C` [Compound I-25], 100 to 1000 nM.
Same read-out and setting: next, `C=CC(=O)N1CCN(c2c(C#N)c(=O)n(-c3ccccc3C(C)C)c3cc(-c4cc(O)ccc4F)c(Cl)cc23)[C@@H](C)C1` [Compound I-73]: 100 to 1000 nM.

Staying with this test, now noted: class symbols.
Take `C=CC(=O)N1CCN(c2c(C#N)c(=O)n(-c3ccccc3C(C)C)c3cc(-c4ccc(F)cc4O)c(Cl)cc23)[C@@H](C)C1` [Compound I-72]: the IC50 is less than 100 nM.
Still for that read-out and setting: for `C=CC(=O)N1CCN(c2c(C#N)c(=O)n(-c3c(C)ccnc3C(C)C)c3cc(-c4c(C)ccc5[nH]ncc45)c(Cl)cc23)[C@@H](C)C1` [Compound I-83-2] the value was 100 to 1000 nM.
In the case of `C=CC(=O)N1CCN(c2c(C#N)c(=O)n(-c3c(C)ccnc3C(C)C)c3cc(-c4c(OC)ccc(Cl)c4F)c(Cl)cc23)[C@@H](C)C1` [Compound I-84-2], the IC50 lay in the range of 100 to 1000 nM.
Same read-out and setting: for `C=CC(=O)N1CCN(c2c(C#N)c(=O)n(-c3c(C(C)C)ncnc3C(C)C)c3cc(-c4c(C)ccc5[nH]ncc45)c(Cl)cc23)[C@@H](C)C1` [Compound I-86-2] the value was 100 to 1000 nM.
The same measure, in the same setting: for `C=CC(=O)N1CCN(c2c(C#N)c(=O)n(-c3c(C(C)C)ncnc3C(C)C)c3cc(-c4c(OC)ccc(Cl)c4F)c(Cl)cc23)[C@@H](C)C1` [Compound I-87-2] the value was 100 to 1000 nM.
The same measure, in the same setting: next, `C=CC(=O)N1CC2(CCN(c3c(C#N)c(=O)n(-c4ccccc4C(C)C)c4cc(-c5c(C)ccc6[nH]ncc56)c(Cl)cc34)CC2)C1` (single isomer, unassigned) [Compound I-5-1]: more than 1000 nM; `C=CC(=O)N1CCN(c2c(C#N)c(=O)n(-c3ccccc3C(C)C)c3cc(-c4cc(Cl)ccc4N)c(Cl)cc23)[C@@H](C)C1` [Compound I-82]: less than 100 nM.

The same test, now with this note: numeric values.
As to `C=CC(=O)N1CCN(c2c(C#N)c(=O)n(-c3ccccc3C(C)C)c3cc(-c4c(C)ccc5[nH]ncc45)c(Cl)cc23)[C@H](C)C1` (single isomer, unassigned) [Compound I-3-2], the IC50 is 250 nM.
Same read-out and setting: for `C=CC(=O)N1CCN(c2c(C#N)c(=O)n(-c3ccccc3C(C)C)c3cc(-c4c(C)ccc5[nH]ncc45)c(Cl)cc23)[C@H](C)C1` (single isomer, unassigned) [Compound I-3-1] the value was 1980 nM.

These data come from patent US20220064141A1, “BENZOPYRIDONE HETEROCYCLIC COMPOUND AND USE THEREOF” (BrightGene Bio-Medical Technology Co., Ltd., priority 2019, published 2022).
